Among the data in ChEMBL document CHEMBL4414656, “Alkaloids from the Branches and Leaves of Elaeocarpus angustifolius” (J Nat Prod, 2019) are IC50 values, retold here.

The experiment deals with Cholinesterase (Homo sapiens, UniProt P06276). The experiment in a line: Inhibition of human […] BuChE using S-butyrylthiocholine iodide as substrate preincubated for 20 mins followed by substrate addition and measured every 30 secs for 1 hr by Ellman's method.
Sequence of Cholinesterase (P06276 whole entry): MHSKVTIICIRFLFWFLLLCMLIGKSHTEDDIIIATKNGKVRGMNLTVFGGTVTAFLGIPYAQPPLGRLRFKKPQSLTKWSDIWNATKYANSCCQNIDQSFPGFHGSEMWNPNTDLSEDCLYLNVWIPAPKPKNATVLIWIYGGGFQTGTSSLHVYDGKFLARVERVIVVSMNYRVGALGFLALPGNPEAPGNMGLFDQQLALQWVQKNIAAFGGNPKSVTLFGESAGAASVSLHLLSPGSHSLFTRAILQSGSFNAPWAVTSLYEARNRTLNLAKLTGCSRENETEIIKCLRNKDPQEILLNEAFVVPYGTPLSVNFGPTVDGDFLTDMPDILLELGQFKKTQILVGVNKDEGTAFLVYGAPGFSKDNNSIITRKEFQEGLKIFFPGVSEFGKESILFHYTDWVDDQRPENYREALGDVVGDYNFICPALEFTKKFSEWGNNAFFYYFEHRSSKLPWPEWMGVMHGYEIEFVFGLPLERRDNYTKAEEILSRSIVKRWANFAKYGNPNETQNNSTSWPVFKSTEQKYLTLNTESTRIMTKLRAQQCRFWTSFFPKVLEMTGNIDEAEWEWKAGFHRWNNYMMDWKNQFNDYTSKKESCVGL
The compound `Cc1cccc2c1C(=O)[C@H]1[C@H](CCN3CCC[C@H]13)O2` (racemic) [ISOELAEOCARPINE] returned a half-maximal inhibitory concentration (IC50) of more than 50 µM. The compound `Cc1cccc2c1C(=O)[C@@H]1[C@H]3CCCN3CC[C@H]1O2` (racemic) came in with a half-inhibitory concentration (IC50) of 35 µM. To `Cc1cccc2c1C(=O)[C@@H]1[C@H](CCN3C(=O)CC[C@@H]13)O2` belongs more than 50 µM; to `Cc1cccc2c1C(=O)[C@@H]1[C@H]3CCC[N@@+]3([O-])CC[C@H]1O2` (racemic), more than 50 µM; to `Cc1cccc2c1C(=O)[C@@H]1[C@H]3CCC(=O)N3CC[C@H]1O2`, more than 50 µM.

In the case of `Cc1cccc2c1C(=O)[C@H]1[C@H](CCN3C(=O)CC[C@H]13)O2` (racemic), the IC50 was more than 50 µM. `Cc1cccc2c1C(=O)C1=C3CCCN3CCC1O2` (racemic): 39 µM corresponded to half-maximal inhibition (IC50). Compound `Cc1cccc(O)c1C(=O)C[C@H]1CC[C@H]2[C@@H]3C(=O)c4c(C)cccc4O[C@@H]3CCN12` returned an IC50 of more than 50 µM.

In turn, `Cc1cccc(O)c1C(=O)CC1CCCN1CCCO` (racemic) displayed a 50% inhibitory concentration (IC50) of more than 50 µM. `Cc1cccc2c1C(=O)CC(CCCNCCCO)O2` (racemic): the IC50 was more than 50 µM. The result for `Cc1cccc2c1C(=O)[C@@H]1[C@H]3CCC[N@+]3([O-])CC[C@H]1O2` (racemic) reads more than 50 µM; that for `Cc1cccc(O)c1C(=O)C[C@@H]1CC[C@@H]2[C@H]3C(=O)c4c(C)cccc4O[C@@H]3CCN12` (racemic), more than 50 µM. The result for `Cc1cccc(O)c1C(=O)C[C@@H]1CC[C@@H]2[C@H]3C(=O)c4c(C)cccc4O[C@H]3CCN12` reads more than 50 µM. Take `Cc1cccc2c1C(=O)[C@H]1[C@@H](CC[N@@+]3([O-])CCC[C@@H]13)O2` (racemic): the IC50 worked out at 29 µM.
